Patent US11884747B2, “Compstatin analogs with increased solubility and improved pharmacokinetic properties” (The Trustees of the University of Pennsylvania, priority 2018, dated 2024)
Values joined by “and” are separate entries in the source; they are usually repeats but may differ in a detail not shown here. Equal entries are not always repeated. “Also recorded” adds a separate entry of the source.

Experiments:
[1] = Pharmacokinetics in NHP plasma after single s.c. injection, with plasma C3 levels
[2] = Pharmacokinetics after single i.v. injection; format: in vivo, cynomolgus monkeys
Description: FIG. 11 show graphs of peptide concentration over time in cynomolgus monkeys to which was administered a single 2 mg/kg intravenous injection of Cp40-KK (panel a), Cp40-KKK (panel b), mPEG(1 k)-Cp40 (panel c), and mPEG(3 k)-Cp40 (panel d). […]
In vivo pharmacokinetic studies were conducted, in which cynomolgus monkeys were administered single i.v. injections of mPEG(1 k)-Cp40, mPEG(3 k)-Cp40, Cp40-KK, or Cp40-KKK.

[3] = Residence time in the vitreous after single intravitreal injection (WES and SPR competition assay); format: in vivo, cynomolgus monkeys
Description: To determine the residence time of mPEG(3 k)-Cp40, mPEG(1 k)-Cp40, Cp40-KK, and Cp40-KKK in the vitreous of cynomolgus macaques, these Cp40-based analogs were administered intravitreally (i.v.t.) to the animals after induction of light ketamine anesthesia (10-15 mg/kg, by intramuscular injection (i.m.)) and dilation of the pupils with tropicamide/phenylephrine ophthalmic solution (see Table 6 for study design).
For i.v.t. injection, the cynomolgus monkeys were anesthetized with a combination of ketamine (15-25 mg/kg, i.m.) and xylazine (2 mg/kg, i.m.) and the eye was cleaned with povidone-iodine solution. After application of oxybuprocaine hydrochloride solution (Benoxil® ophthalmic solution 0.4%) to the cornea as a local anesthetic, the Cp40-based analogs were administered to the animals by i.v.t. injection into either the right (G1, G3) or left (G2, G4) eye of each animal. Immediately following each injection, a single topical dose of 0.5% levofloxacin was administered. After i.v.t. injection of mPEG(3 k)-Cp40, mPEG(1 k)-Cp40, Cp40-KK, and Cp40-KKK, vitreous fluid samples (about 50 μL each) were withdrawn from Cp40-based analog-treated eyes on days 14, 28, 42, (G1, G2, G3, G4), 56, 73, 90 (G1, G2) (this was done either three times or six times). Samples were collected on ice and stored in a deep freezer (˜79.3 to −68.5° C.) until further analysis. […] Presence and concentration of the Cp40-based analogs was determined using either the simple western technology (WES, ProteinSimple, San Jose, CA), or surface plasmon resonance (SPR)-based real-time measurement of binding kinetics on a Cp40-KKK immobilized chip (see detailed methods below). Similar results with regard to the intravitreal residence time and concentration levels of the test compounds were obtained regardless of the quantification method selected.
To quantify the levels of all test compounds in vitreous samples collected at different time points following i.v.t. injection (see FIG. 15), WES analysis was performed on a WES instrument (ProteinSimple, San Jose, CA) using a 2 to 40 kDa Separation Module and Anti-Rabbit Detection Module according to the manufacturers' instructions. […] The resulting electropherograms were evaluated using the Compass software (ProteinSimple, San Jose, CA). The following criteria were used to discriminate low peptide signals from background: The peak signal-to-noise (S/N) ratio given by the software must be ≥10, and the peak height/baseline ratio (calculated manually from the peak height and baseline values given by the software) must be equal to or greater than 3. […] Shown in FIG. 15 is a representative standard curve generated using the WES system and bands obtained upon running pre-determined amounts of purified peptide spiked into rabbit vitreous samples. […]

[4] = system: complement classical pathway; assay: Classical pathway activation (C3b deposition) ELISA in human plasma with or without rabbit vitreous; format: biochemical; details: in the absence of vitreous
Description: An alternative explanation to the one presented above is that the vitreous contains additional unidentified factors that associate with the Cp40-KKK analog. To investigate whether an unidentified vitreous factor impacts the complement inhibitory activity of lysine containing compounds, complement activation assays were performed using vitreous samples. Briefly, human plasma was incubated with OVA-anti-OVA immune-complexes in the presence of serial dilutions of the Cp40-based analogs mixed with rabbit vitreous. Levels of classical pathway activation (C3b deposition) were determined by ELISA using a polyclonal anti-human C3 antibody conjugated with HRP (MP Biomedicals, Solon, OH) (FIG. 20).

human C3b = biological target: T1, human C3b (Homo sapiens, UniProt P01024); assay: SPR binding affinity and kinetic profile with immobilized C3b; details: for kd, dissociation constant / Kd / ka, association constant: 25 °C; for kd, dissociation constant / ka, association constant: 1:1 Langmuir model; for Kd: KD=kd/ka, read-out: KD, equilibrium dissociation constant
T1 construct: purchased Complement Technology, Inc., Tyler, TX
T1 sequence (P01024 23-667 limits assumed): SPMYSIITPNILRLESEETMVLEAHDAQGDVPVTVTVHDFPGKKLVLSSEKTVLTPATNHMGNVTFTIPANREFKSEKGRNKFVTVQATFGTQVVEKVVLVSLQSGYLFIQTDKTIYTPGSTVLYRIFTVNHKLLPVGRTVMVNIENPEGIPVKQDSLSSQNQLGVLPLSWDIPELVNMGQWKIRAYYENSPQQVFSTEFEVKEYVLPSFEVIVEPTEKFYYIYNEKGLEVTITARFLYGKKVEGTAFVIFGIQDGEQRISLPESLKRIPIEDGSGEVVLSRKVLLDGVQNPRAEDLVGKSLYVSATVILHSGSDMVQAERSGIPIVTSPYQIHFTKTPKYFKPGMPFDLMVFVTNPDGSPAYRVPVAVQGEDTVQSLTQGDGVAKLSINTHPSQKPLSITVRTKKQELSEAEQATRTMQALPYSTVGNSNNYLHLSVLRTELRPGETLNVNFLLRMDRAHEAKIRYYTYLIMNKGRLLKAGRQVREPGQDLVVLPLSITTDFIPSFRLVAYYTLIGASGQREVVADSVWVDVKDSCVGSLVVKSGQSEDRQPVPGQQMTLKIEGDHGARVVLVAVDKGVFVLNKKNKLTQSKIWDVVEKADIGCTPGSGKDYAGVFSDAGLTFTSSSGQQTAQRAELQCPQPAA
T1 sequence (P01024 749-1663 partner limits assumed): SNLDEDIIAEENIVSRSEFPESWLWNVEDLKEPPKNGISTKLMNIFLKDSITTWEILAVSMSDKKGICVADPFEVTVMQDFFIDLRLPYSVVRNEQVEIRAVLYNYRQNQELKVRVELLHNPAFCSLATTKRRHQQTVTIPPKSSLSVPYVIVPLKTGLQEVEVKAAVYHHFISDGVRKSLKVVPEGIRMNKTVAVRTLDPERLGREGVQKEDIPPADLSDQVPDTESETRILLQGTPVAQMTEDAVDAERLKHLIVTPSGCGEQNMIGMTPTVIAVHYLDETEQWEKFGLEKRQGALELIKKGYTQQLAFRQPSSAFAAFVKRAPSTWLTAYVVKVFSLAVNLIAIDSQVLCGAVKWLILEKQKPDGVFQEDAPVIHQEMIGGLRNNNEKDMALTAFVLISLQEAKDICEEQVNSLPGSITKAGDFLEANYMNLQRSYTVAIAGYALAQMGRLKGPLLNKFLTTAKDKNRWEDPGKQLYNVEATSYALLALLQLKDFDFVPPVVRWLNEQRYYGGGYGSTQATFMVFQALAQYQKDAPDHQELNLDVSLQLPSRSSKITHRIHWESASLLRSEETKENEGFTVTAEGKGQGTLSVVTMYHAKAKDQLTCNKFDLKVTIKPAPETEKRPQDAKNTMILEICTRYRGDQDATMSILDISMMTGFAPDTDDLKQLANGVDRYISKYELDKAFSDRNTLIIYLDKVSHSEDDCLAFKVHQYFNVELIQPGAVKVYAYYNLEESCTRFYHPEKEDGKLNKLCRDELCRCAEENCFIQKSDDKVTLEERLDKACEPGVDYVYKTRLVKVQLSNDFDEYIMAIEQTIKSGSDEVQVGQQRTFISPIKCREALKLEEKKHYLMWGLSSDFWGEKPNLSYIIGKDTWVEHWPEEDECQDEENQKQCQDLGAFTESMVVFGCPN

[5] = system: classical pathway of complement; assay: Classical pathway complement inhibition ELISA (C3b deposition) in normal human plasma; format: biochemical; details: human plasma diluted 1:40; mean of at least three experiments
Description: For this purpose, microtiter wells (NUNC) were coated with 50 μl of 1% ovalbumin in PBS (pH 7.4) at ambient temperature for 2 h. The wells were blocked with 200 μl of 1% BSA in PBS for 1 h, then coated with 50 μl of 1:1000 α-ovalbumin polyclonal antibody in PBS for 1 h. Between each step, the plate was washed thrice with 200 μl of 0.05% Tween 20 in PBS (PBS-T); 30 μl of VBS (Veronal buffer 1×; 5 mM veronal, pH 7.4, containing 150 mM NaCl, 0.5 mM CaCl2 and 0.5 mM MgCl2) were placed in all but the first well of each row of the 96-well plate, and 5 μM peptide solutions in VBS were prepared. […] Human plasma diluted 1:40 in VBS was incubated for 15 min with peptide of 0.005 to 2.5 μM. After washing with PBS-T, 50 μl/well of 1:1000 goat a-human C3 HRP conjugated antibody in 1% BSA in PBS was added to the wells and incubated for 1 h at room temperature. Complement fixation indicating activation was detected by the addition of HRP substrate (0.05% ABTS and 0.1% of 30% aqueous H2O2 in 0.1 M sodium citrate, pH 4.2) and read at 405 nm. The absorbance data obtained at 405 nm were translated into % inhibition, considering 100% to be equal to complement activation in the absence of peptide. The percent inhibition was plotted against the logarithm of concentrations, and the resulting data set was fitted to the equation “log(inhibitor) vs. normalized response” using GraphPad Prism 5 (La Jolla, CA). IC50 values were obtained from the fitted parameters of the mean of at least three independent experiments. Cp40 was always used as the internal control.

[6] = for pH of the peptide solution in PBS: at the stated concentration, indicator paper
C3 = details: Qu et al. (2013); cited from earlier work

| SMILES | C3 saturation time (peptide above plasma level of C3) ([1]; single s.c. 2 mg/kg) | in vivo Lys cleavage in plasma ([2]; after i.v. injection) | AUC(0-t) ([2]; cynomolgus monkey, plasma, iv, 2 mg/kg, single i.v. injection, read-out: AUC0-120h) | detection in vitreous over time ([3]; single i.v.t. 500 μg, days 14-90) | kd, dissociation constant (human C3b) | Kd (human C3b) | drop in the binding affinity toward C3b vs Cp40 (human C3b) | ka, association constant (human C3b) | in vivo Lys cleavage in plasma ([1]; after s.c. injection, UPLC-ESI-MS) | CL/F, apparent clearance ([1]; single s.c. 2 mg/kg, SUM for Lys analogs, 2 mg/kg) | complement classical pathway inhibitory activity [4] | IC50 [5] | pH of the peptide solution in PBS [6] | C3 saturation time (peptide above plasma level of C3) ([1]; single s.c. 2 mg/kg, 2 mg/kg) | detection in vitreous ([3]; 100 μg i.v.t.) | binding affinity for C3 (C3) | binding affinity for C3 higher than that of the parent peptide (C3) | Conc. (mg/ml), solubility in PBS ([6]; pH 7.4) |
| --- | --- | --- | --- | --- | --- | --- | --- | --- | --- | --- | --- | --- | --- | --- | --- | --- | --- | --- |
| CC[C@H](C)[C@H](NC(=O)[C@H](N)Cc1ccc(O)cc1)C(=O)N[C@H]1CSSC[C@@H](C(=O)N(C)[C@H](C(=O)N[C@@H](CCCCN)C(=O)N[C@@H](CCCCN)C(N)=O)[C@@H](C)CC)NC(=O)[C@H](CCCNC(=N)N)NC(=O)[C@H](Cc2c[nH]cn2)NC(=O)[C@H](C)NC(=O)CN(C)C(=O)[C@H](Cc2c[nH]c3ccccc23)NC(=O)[C@H](CC(=O)O)NC(=O)[C@H](CCC(N)=O)NC(=O)[C@H](Cc2cn(C)c3ccccc23)NC(=O)[C@H](C(C)C)NC1=O [Cp40-KK, DTyr-Ile-[Cys-Val-Trp(Me)-Gln-Asp-Trp-Sar-Ala-His-Arg-Cys]-mIle-Lys-Lys—NH2] | 2.5 to 5 h | metabolized to minimal amounts of Cp40-K | 85.2 µM·h | no longer detected on day 90 | 1.52 ± 0.25 10^−3s^−1 | 0.44 ± 0.17 nM |  |  | Cp40-K was also detected in the NHP plasma samples, beginning at 30 min after sc injection; also recorded: cleaved in vivo generating minimal amounts of Cp40-K | 3348 ((mg/kg)/(μM · h) and 2648 ((mg/kg)/(μM · h) | inhibitory activity in a dose-dependent manner | 61.8 ± 4.2 nM | 7-7.5 |  |  |  |  |  |
| CC[C@H](C)[C@H](NC(=O)[C@H](N)Cc1ccc(O)cc1)C(=O)N[C@H]1CSSC[C@@H](C(=O)N(C)[C@H](C(N)=O)[C@@H](C)CC)NC(=O)[C@H](CCCNC(=N)N)NC(=O)[C@H](Cc2c[nH]cn2)NC(=O)[C@H](C)NC(=O)CN(C)C(=O)[C@H](Cc2c[nH]c3ccccc23)NC(=O)[C@H](CC(=O)O)NC(=O)[C@H](CCC(N)=O)NC(=O)[C@H](Cc2cn(C)c3ccccc23)NC(=O)[C@H](C(C)C)NC1=O [Cp40, DTyr-Ile-[Cys-Val-Trp(Me)-Gln-Asp-Trp-Sar-Ala-His-Arg-Cys]-mIle-NH2, reference compound] |  |  |  |  | 1.84 ± 0.40 10^−3s^−1 | 0.53 ± 0.14 nM |  |  |  |  | inhibitory activity in a dose-dependent manner | 56.8 ± 3 nM | 7.5 | 4 to 5 h and ~4.5 h | no detection of any compound was observed after one month | subnanomolar | ~6,000 fold |  |
| CC[C@H](C)[C@H](NC(=O)[C@H](N)Cc1ccc(O)cc1)C(=O)N[C@H]1CSSC[C@@H](C(=O)N(C)[C@H](C(=O)N[C@@H](CCCCN)C(N)=O)[C@@H](C)CC)NC(=O)[C@H](CCCNC(=N)N)NC(=O)[C@H](Cc2c[nH]cn2)NC(=O)[C@H](C)NC(=O)CN(C)C(=O)[C@H](Cc2c[nH]c3ccccc23)NC(=O)[C@H](CC(=O)O)NC(=O)[C@H](CCC(N)=O)NC(=O)[C@H](Cc2cn(C)c3ccccc23)NC(=O)[C@H](C(C)C)NC1=O [Cp40-K, DTyr-Ile-[Cys-Val-Trp(Me)-Gln-Asp-Trp-Sar-Ala-His-Arg-Cys]-mlle-Lys—NH2] |  |  |  |  | 1.85 ± 0.50 10^−3s^−1 | 0.92 ± 0.2 nM |  |  |  |  | inhibitory activity in a dose-dependent manner | 95.6 ± 9.2 nM | 7.5 |  |  |  |  |  |

Further lines, with some results ahead:

| C3 saturation time (peptide above plasma level of C3) ([1]; single s.c. 2 mg/kg) | in vivo Lys cleavage in plasma ([2]; after i.v. injection) | AUC(0-t) ([2]; cynomolgus monkey, plasma, iv, 2 mg/kg, single i.v. injection, read-out: AUC0-120h) | detection in vitreous over time ([3]; single i.v.t. 500 μg, days 14-90) | kd, dissociation constant (human C3b) | Kd (human C3b) | drop in the binding affinity toward C3b vs Cp40 (human C3b) | ka, association constant (human C3b) | SMILES | in vivo Lys cleavage in plasma ([1]; after s.c. injection, UPLC-ESI-MS) | CL/F, apparent clearance ([1]; single s.c. 2 mg/kg, SUM for Lys analogs, 2 mg/kg) | complement classical pathway inhibitory activity [4] | IC50 [5] | pH of the peptide solution in PBS [6] | C3 saturation time (peptide above plasma level of C3) ([1]; single s.c. 2 mg/kg, 2 mg/kg) | detection in vitreous ([3]; 100 μg i.v.t.) | binding affinity for C3 (C3) | binding affinity for C3 higher than that of the parent peptide (C3) | Conc. (mg/ml), solubility in PBS ([6]; pH 7.4) |
| --- | --- | --- | --- | --- | --- | --- | --- | --- | --- | --- | --- | --- | --- | --- | --- | --- | --- | --- |
|  |  |  |  | 2.45 ± 0.28 10^−3s^−1 | 2.58 ± 0.51 nM | 5 fold | 1.00 ± 0.27 10^6M^−1s^−1 | CC[C@H](C)[C@H](NC(=O)[C@@H](Cc1ccc(O)cc1)NC(=O)CCOCCOCCOCCOCCOCCOCCOCCOCCOCCOCCOCCOC)C(=O)N[C@H]1CSSC[C@@H](C(=O)N(C)[C@H](C(N)=O)[C@@H](C)CC)NC(=O)[C@H](CCCNC(=N)N)NC(=O)[C@H](Cc2c[nH]cn2)NC(=O)[C@H](C)NC(=O)CN(C)C(=O)[C@H](Cc2c[nH]c3ccccc23)NC(=O)[C@H](CC(=O)O)NC(=O)[C@H](CCC(N)=O)NC(=O)[C@H](Cc2cn(C)c3ccccc23)NC(=O)[C@H](C(C)C)NC1=O [mPEG(528)-Cp40] |  |  |  | 83.5 ± 8.1 nM | 7-7.5 |  |  |  |  | 2.3 mg/mL |
|  |  |  |  | 2.80 ± 0.95 10^−3s^−1 | 3.93 ± 0.39 nM |  | 0.72 ± 0.25 10^6M^−1s^−1 | CC[C@H](C)[C@H](NC(=O)[C@@H](Cc1ccc(O)cc1)NC(=O)CCOCCOCCOCCOCCOCCOCCOCCOCCOCCOCCOCCOCCOCCOCCOCCOCCOCCOCCOCCOCCOCCOCCOCCOC)C(=O)N[C@H]1CSSC[C@@H](C(=O)N(C)[C@H](C(N)=O)[C@@H](C)CC)NC(=O)[C@H](CCCNC(=N)N)NC(=O)[C@H](Cc2c[nH]cn2)NC(=O)[C@H](C)NC(=O)CN(C)C(=O)[C@H](Cc2c[nH]c3ccccc23)NC(=O)[C@H](CC(=O)O)NC(=O)[C@H](CCC(N)=O)NC(=O)[C@H](Cc2cn(C)c3ccccc23)NC(=O)[C@H](C(C)C)NC1=O [mPEG(1056)-Cp40] |  |  |  | 52 ± 2.7 nM | 7-7.5 |  |  |  |  |  |
